Several values for one entry are separate records, joined by “and”; a condition that tells them apart may be missing. Equal entries are not always repeated. Entries after “also recorded” stand apart in the source; their conditions may differ. Where two headings read alike, the source gives them in different places.
Columns and labels:
[1] = molecular target: NMDA NR1/2A (Homo sapiens, UniProt Q05586+Q12879); assay: Selectivity panel, functional; type: cell-based
[2] = molecular target: Adrenergic α1B (Homo sapiens, UniProt P35368); assay: Selectivity panel, binding
[3] = molecular target: Adrenergic α2A (Homo sapiens, UniProt P08913); assay: Selectivity panel, binding
[4] = molecular target: T1, rat α1β1δε nAChR (Rattus norvegicus, UniProt P09660+P25108+P25109+P25110); assay: Ca2+ flux (FLIPR) agonist/antagonist assay; type: cell-based; settings: FLIPR antagonist mode, EC90 ACh
T1 construct: expressed in transfected cells; host or cells: HEK293 (made by Bristol-Myers Squibb)

[5] = molecular target: Adrenergic α2C (Homo sapiens, UniProt P18825); assay: Selectivity panel, binding
[6] = molecular target: Androgen receptor (Rattus norvegicus, UniProt P15207); assay: Selectivity panel, binding
[7] = system: neonatal PCP treated rats; assay: Rat neonatal PCP ID/ED set shifting; type: in vivo; settings: for Number of trials to criteria, Complex discrimination / Number of trials to criteria, Simple discrimination: individual rats
Description: Male pups were treated with either 0.9% saline (sham) or PCP (20 mg/kg, sc) on post-natal days 7, 9 and 11 and then singly housed after weaning on postnatal days 21–25. All studies were conducted in adult animals (2–4 months of age) using methods adapted from. Rats were food-restricted (15g/rat/day) for 7 days prior to the initiation of training and throughout the remainder of the study. At the time of testing the average (± SEM) body weight ranged from 278 ± 6g to 296 ± 9g across the individual treatment groups. The animals then received 3 days of training during which they were handled, habituated to the test arena (5 min/day) and trained to dig in a ceramic pot for a food reward (Honey Nut Cheerios). The testing arena was constructed of black plastic (45 cm wide x 60 cm long x 45 cm tall) and divided into 3 compartments, i.e. a separate starting box and 2 choice boxes separated by an opaque wall. Each choice box contained a terracotta (4 inch diameter) pot, filled with digging media and with scented oil applied to the rim. At the beginning of each trial the animal was placed in the start box, the sliding door was opened and the subject was allowed to freely explore the two choice boxes. Both pots were initially baited with food until the subject reliably retrieved the food rewards from each. Thereafter, rats were trained to discriminate between either 2 distinct odors (stimulus dimension 1) or 2 distinct digging media (stimulus dimension 2) in order to correctly identify the baited pot. On the first trial only, rats were allowed to dig in both pots if an error was made (with the trial scored as an error trial). Thereafter animals were allowed to dig in one pot only per trial and were tested until the performance criterion of 6 consecutive correct choices was achieved. Each trial was limited to a maximum duration of 5 min and any subject not achieving performance criteria was eliminated from the study. On completion of a successful odor discrimination animals were then trained to successfully complete a simple discrimination trial based on digging media. Odor and digging media used in these initial training trials were not used again for ID/ED testing. […] All subjects were brought to the experimental laboratory at least 30 min prior to behavioral assessment. To determine ID/ED performance rats were tested for their ability to successfully complete a series of discriminations based on either odor or digging media. In all instances subjects were pre-assigned one stimulus dimension (i.e. digging media or odor) as the correct predictor of the food reward for the first series of discriminations. Only at the final stage i.e. the extra-dimensional shift (EDS) was the subject required to shift attention away from the assigned stimulus dimension to a different dimension (e.g. odor to digging media) to correctly identify the baited pot. The sequence of discriminations was a follows: simple discrimination (SD), compound discrimination (CD), intra-dimensional shift 1 (IDS1), intra-dimensional shift 2 (IDS2), intra-dimensional shift 2 reversal (IDS2rev) and EDS and examples of exemplars are shown in S1 Table. For all discrimination stages successful completion was defined as 6 consecutive correct trials at which point subjects progressed to the next phase of the task. The test session ended when either i) all discrimination phases were successfully completed or ii) testing had proceeded for 120 min. The average duration of a test session was 1 h and all subjects completed the ID/ED task within the allotted timeframe.

[8] = molecular target: Glucocorticoid receptor (Homo sapiens, UniProt P04150); assay: Selectivity panel, binding
[9] = molecular target: Muscarinic M2 (Homo sapiens, UniProt P08172); assay: Selectivity panel, binding
[10] = molecular target: Muscarinic M3 (Homo sapiens, UniProt P20309); assay: Selectivity panel, binding; settings: read-out: % inhibition @ 10 µM
[11] = molecular target: Muscarinic M5 (Homo sapiens, UniProt P08912); assay: Selectivity panel, binding; settings: read-out: % inhibition @ 10 µM
[12] = molecular target: T2, rat α3β4 nAChR (Rattus norvegicus, UniProt P04757+P12392); assay: Ca2+ flux (FLIPR) agonist/antagonist assay; type: cell-based; settings: FLIPR antagonist mode, EC90 ACh
T2 construct: expressed in transfected cells; host or cells: HEK293 (made by Bristol-Myers Squibb)

[13] = molecular target: MAO-B (Homo sapiens, UniProt P27338); assay: Selectivity panel, enzyme; type: biochemical
[14] = molecular target: PDE3; assay: Selectivity panel, enzyme; type: biochemical; settings: Human
[15] = molecular target: 5-HT2A (Homo sapiens, UniProt P28223); assay: Selectivity panel, functional; type: cell-based
[16] = system: 5-HT1B; assay: Selectivity panel, binding; settings: read-out: % inhibition @ 10 µM, Rat
[17] = molecular target: 5-HT1A (Homo sapiens, UniProt P08908); assay: Selectivity panel, binding; settings: read-out: % inhibition @ 10 µM
[18] = molecular target: HEK293/Human α7 nAChR (Homo sapiens, UniProt P36544); assay: [3H]-A-585539 filtration binding; design: expressed in transfected cells
[19] = molecular target: Nav1.5 (Homo sapiens, UniProt Q14524); assay: Selectivity panel, functional; type: cell-based
[20] = molecular target: Norepinephrine transporter (Homo sapiens, UniProt P23975); assay: Selectivity panel, binding
[21] = molecular target: 5-HT transporter (Homo sapiens, UniProt P31645); assay: Selectivity panel, binding

HEK293/Human α7 nAChR, sequence (P36544 23-502): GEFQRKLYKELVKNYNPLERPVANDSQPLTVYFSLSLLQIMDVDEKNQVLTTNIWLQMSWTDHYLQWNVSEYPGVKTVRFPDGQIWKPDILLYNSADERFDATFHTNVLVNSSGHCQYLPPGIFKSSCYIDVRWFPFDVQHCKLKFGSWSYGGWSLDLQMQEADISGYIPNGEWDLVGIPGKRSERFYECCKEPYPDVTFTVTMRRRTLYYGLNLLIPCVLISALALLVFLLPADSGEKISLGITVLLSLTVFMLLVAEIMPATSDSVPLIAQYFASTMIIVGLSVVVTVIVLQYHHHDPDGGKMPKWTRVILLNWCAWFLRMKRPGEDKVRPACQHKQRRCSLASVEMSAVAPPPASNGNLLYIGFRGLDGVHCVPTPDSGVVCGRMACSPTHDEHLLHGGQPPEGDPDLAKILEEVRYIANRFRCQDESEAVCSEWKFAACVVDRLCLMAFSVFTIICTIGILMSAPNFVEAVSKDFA
T2 sequence (P04757 26-499): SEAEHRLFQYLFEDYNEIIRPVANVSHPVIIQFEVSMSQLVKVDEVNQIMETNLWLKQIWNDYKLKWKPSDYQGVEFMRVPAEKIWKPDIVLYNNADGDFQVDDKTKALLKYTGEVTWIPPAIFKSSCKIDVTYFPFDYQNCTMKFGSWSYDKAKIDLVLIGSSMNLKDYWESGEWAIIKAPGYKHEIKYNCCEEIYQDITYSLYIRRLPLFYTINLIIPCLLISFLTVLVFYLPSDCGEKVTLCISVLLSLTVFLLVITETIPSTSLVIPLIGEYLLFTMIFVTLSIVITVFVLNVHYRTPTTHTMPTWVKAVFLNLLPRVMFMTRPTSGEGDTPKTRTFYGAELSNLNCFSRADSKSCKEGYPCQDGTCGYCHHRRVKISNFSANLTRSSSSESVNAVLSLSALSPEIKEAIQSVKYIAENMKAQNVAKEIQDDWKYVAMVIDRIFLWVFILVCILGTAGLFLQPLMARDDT
T2 sequence (P12392 21-495): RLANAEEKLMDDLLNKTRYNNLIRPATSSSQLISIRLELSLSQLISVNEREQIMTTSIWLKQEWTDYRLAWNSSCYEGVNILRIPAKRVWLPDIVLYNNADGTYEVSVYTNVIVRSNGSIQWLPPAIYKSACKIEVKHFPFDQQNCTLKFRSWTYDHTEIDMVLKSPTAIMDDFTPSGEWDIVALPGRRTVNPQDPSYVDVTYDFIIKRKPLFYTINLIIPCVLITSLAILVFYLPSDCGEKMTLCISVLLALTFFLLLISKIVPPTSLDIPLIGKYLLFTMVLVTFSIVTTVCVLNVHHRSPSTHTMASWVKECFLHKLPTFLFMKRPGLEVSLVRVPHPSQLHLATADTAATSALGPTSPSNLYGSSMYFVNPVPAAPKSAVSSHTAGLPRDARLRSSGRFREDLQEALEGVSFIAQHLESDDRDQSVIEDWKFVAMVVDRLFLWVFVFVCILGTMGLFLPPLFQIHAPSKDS
Adrenergic α2C, sequence (P18825 whole entry): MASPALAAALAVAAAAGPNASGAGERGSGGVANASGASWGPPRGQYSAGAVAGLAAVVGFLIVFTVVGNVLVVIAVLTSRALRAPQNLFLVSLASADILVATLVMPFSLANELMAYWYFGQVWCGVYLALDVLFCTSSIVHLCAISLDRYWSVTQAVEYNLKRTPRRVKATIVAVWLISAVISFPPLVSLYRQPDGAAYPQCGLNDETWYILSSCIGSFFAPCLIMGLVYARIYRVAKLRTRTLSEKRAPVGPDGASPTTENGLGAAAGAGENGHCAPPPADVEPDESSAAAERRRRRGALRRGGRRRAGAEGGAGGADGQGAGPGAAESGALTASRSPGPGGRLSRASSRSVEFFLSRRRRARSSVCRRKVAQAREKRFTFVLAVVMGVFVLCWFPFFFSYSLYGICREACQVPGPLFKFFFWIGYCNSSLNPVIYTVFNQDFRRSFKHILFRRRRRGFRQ
Adrenergic α1B, sequence (P35368 whole entry): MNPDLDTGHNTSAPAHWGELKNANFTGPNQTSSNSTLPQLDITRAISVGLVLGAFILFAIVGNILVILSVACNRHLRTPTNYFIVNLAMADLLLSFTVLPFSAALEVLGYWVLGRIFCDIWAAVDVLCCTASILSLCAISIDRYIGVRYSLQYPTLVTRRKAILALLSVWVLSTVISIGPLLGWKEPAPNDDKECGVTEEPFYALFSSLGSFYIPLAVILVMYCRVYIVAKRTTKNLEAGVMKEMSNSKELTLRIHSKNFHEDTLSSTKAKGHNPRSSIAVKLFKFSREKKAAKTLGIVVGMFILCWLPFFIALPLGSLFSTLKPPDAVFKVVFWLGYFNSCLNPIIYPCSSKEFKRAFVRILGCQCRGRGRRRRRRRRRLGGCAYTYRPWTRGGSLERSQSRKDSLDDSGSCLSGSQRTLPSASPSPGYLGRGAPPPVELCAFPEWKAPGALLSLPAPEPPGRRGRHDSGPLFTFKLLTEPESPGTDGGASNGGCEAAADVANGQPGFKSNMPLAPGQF
NMDA NR1/2A, sequence (Q12879 23-1464, other chains not shown): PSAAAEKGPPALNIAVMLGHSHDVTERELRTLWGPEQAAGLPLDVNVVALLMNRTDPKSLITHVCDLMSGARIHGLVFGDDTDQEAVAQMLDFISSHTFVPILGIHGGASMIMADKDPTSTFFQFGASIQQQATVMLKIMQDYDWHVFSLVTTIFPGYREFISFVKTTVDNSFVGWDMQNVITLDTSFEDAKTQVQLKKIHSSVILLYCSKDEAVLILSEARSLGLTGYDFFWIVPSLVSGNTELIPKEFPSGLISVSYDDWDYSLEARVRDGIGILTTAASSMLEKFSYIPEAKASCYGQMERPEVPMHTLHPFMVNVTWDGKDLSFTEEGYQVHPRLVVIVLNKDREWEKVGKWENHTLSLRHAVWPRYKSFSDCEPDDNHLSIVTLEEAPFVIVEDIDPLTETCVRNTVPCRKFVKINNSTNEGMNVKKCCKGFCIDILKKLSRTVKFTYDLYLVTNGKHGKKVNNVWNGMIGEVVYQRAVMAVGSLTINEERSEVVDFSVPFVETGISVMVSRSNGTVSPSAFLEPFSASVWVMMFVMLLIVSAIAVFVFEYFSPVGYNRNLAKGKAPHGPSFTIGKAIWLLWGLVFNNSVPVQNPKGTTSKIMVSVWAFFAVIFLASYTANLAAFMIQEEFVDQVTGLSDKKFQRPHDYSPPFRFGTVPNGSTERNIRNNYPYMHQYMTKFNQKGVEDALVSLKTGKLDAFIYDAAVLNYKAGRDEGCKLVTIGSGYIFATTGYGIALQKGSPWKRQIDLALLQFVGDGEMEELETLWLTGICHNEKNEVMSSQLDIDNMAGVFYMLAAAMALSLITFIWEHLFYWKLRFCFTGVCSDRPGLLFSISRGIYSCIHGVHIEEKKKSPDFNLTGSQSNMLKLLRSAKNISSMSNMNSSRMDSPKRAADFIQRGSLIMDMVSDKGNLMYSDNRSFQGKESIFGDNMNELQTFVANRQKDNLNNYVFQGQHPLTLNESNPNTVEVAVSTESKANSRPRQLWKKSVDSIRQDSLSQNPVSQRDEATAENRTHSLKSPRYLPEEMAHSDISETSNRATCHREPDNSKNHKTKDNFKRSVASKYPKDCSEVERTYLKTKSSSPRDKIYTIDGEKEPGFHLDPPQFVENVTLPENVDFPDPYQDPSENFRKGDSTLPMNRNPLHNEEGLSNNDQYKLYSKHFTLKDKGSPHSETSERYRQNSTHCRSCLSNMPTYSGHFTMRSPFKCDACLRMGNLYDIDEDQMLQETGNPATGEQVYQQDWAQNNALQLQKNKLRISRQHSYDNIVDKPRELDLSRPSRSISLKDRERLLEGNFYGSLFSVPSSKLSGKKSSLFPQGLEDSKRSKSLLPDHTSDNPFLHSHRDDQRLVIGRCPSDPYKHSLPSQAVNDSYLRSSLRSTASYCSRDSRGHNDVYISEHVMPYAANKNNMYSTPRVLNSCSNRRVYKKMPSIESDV
Adrenergic α2A, sequence (P08913 whole entry): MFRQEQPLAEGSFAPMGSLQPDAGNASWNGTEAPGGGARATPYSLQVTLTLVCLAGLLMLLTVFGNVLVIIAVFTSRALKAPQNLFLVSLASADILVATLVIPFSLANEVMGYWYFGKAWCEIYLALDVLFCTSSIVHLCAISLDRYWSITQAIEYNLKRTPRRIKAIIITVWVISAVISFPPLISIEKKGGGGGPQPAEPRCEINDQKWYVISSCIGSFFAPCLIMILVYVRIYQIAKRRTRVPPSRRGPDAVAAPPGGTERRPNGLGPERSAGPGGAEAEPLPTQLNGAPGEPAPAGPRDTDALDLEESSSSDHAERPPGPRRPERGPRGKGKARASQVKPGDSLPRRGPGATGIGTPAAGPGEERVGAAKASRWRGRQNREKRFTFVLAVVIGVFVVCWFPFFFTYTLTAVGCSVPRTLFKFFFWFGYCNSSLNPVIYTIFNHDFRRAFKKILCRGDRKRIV
5-HT1B, sequence (P28222 whole entry): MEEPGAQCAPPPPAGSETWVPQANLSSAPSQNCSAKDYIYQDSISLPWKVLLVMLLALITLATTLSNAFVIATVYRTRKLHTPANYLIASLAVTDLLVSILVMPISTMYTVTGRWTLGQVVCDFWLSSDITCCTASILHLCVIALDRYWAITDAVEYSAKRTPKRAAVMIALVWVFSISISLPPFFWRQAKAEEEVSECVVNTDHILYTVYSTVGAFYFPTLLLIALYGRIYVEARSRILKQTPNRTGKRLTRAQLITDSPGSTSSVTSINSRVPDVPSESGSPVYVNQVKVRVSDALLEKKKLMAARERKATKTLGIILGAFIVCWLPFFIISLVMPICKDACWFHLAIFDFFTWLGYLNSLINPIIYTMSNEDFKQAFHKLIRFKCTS

Compound `c1cn(-c2cc(NC3=NC[C@@]4(CN5CCC4CC5)O3)ncn2)cn1` [BMS-933043, (2R)-N-(6-(1H-imidazol-1-yl)-4-pyrimidinyl)-4'H-spiro[4-azabicyclo[2.2.2]octane-2,5'-[1,3]oxazol]-2'-amine] has an IC50 [1] greater than 30 µM, an IC50 [2] greater than 30 µM and an IC50 [3] greater than 30 µM. For the same compound, the IC50 [4] was greater than 30 µM, the IC50 [5] was greater than 30 µM and the IC50 [6] was greater than 150 µM. The “EDS performance in neonatal PCP treated rats” value ([7]; 0.1–3 mg/kg po) was “significantly improved EDS performance; also recorded: completely reversed by all doses”, the “Number of trials to criteria, Complex discrimination” value (shortened to “Number … Complex discrimination”) ([7]; PCP/0.1 mg/kg po, 0.1 mg/kg) was 6 (2×) and 16 and 7 (2×) and 8 (2×) and 21 and 19 and the “Number of trials to criteria, Simple discrimination” value (“Number … Simple discrimination” for short) ([7]; PCP/0.1 mg/kg po, 0.1 mg/kg) was 7 (3×) and 11 and 9 and 8 (2×) and 10 and 6. For the same compound, the “Number … Complex discrimination” value ([7]; PCP/0.3 mg/kg po, 0.3 mg/kg) was 18 and 10 (2×) and 7 and 6 (3×) and 8 and 16, the “Number … Simple discrimination” value ([7]; PCP/0.3 mg/kg po, 0.3 mg/kg) was 10 and 15 and 13 and 8 and 9 and 12 and 6 and 19 and 7 and the “Number … Complex discrimination” value ([7]; PCP/1 mg/kg po, 1 mg/kg) was 6 (2×) and 11 (2×) and 7 (2×) and 13 and 14 (2×). For the same compound, the “Number … Simple discrimination” value ([7]; PCP/1 mg/kg po, 1 mg/kg) was 6 (3×) and 12 (2×) and 13 and 11 and 8 and 9, the “Number … Complex discrimination” value ([7]; PCP/3 mg/kg po, 3 mg/kg) was 6 (2×) and 8 and 16 and 10 (2×) and 15 and 17 and 11 and the “Number … Simple discrimination” value ([7]; PCP/3 mg/kg po, 3 mg/kg) was 7 (4×) and 6 (2×) and 16 (2×) and 9. The “Active dose range, Neonatal PCP ID/ED” value ([7]; po) was 0.1–3.0 (po) mg/kg, the “longer time to complete the EDS in neonatal PCP treated rats” value ([7]; po) was “attenuated” and the IC50 [8] was greater than 150 µM. The IC50 [9] was 19.1 µM, the inhibition at 10 µM [10] was 18% and the inhibition at 10 µM [11] was 8%. It also gave an IC50 [12] greater than 30 µM, an IC50 [13] greater than 30 µM and an IC50 [14] greater than 30 µM. It also gave an EC50 [15] greater than 10 µM, an inhibition at 10 µM [16] of 0% and an inhibition at 10 µM [17] of 9%. The Ki ([18]; HEK293/Human α7 nAChR Mean ± SD Ki) was 0.008 µM, the Ki ([18]; HEK293/human α7 nAChR Ki (individual)) was 0.0105 µM and 0.0057 µM and the Ki ([18]; read-out: HEK293/Human α7 nAChR Mean ± SD Ki) was 0.0081 µM. It also gave a Ki ([18]; read-out: HEK293/human α7 nAChR Ki (individual)) of 0.0081 µM, an IC50 [19] greater than 30 µM and an IC50 [20] greater than 30 µM. For the same compound, the IC50 [21] was greater than 30 µM.
